Test results: publication PMC3280214, “Structure Based Discovery of Small Molecules to Regulate the Activity of Human Insulin Degrading Enzyme” (PLoS ONE, 2012)
Entries after “also recorded” stand apart in the source; their conditions may differ.

Legend:
IDE [1] = target: T1, IDE (Homo sapiens, UniProt P14735); assay: FAβB (amyloid-β) degradation assay; type: biochemical
T1 construct: made in house; host or cells: E. coli BL21
T1 sequence (P14735 1-1019): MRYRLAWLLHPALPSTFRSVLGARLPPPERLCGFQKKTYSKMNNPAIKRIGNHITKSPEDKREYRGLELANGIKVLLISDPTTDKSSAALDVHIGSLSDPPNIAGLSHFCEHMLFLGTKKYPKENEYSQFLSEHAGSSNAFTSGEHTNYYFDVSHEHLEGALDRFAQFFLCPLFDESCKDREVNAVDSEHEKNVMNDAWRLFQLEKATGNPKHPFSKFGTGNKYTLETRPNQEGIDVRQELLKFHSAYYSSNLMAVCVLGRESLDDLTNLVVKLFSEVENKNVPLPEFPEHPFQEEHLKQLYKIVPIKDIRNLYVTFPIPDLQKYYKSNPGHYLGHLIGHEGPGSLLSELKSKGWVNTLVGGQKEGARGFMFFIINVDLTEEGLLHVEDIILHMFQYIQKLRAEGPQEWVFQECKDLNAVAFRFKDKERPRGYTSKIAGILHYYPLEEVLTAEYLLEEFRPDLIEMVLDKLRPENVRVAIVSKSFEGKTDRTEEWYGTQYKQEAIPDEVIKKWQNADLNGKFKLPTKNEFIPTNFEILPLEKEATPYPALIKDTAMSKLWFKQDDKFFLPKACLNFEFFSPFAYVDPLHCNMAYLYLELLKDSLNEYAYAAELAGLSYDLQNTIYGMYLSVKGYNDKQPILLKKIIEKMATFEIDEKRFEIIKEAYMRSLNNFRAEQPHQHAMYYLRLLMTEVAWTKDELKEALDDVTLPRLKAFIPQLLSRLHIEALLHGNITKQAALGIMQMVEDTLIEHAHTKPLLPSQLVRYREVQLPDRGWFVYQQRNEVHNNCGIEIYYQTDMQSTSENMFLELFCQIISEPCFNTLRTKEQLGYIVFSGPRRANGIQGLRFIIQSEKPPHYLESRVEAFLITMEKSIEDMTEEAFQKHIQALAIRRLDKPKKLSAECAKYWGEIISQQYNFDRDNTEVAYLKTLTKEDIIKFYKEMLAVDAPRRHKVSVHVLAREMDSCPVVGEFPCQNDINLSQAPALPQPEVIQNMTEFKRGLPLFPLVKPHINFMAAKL
Method: The 10 compounds given in Table 1 were subjected to further characterization and their effect was measured on the proteolytic activity of IDE using different substrates. Initially, activity assays were carried out at fixed 20 µM concentrations for all molecules to identify the effect of those compounds on IDE activity. IDE activity was quantified by monitoring the change in fluorescence for the proteolysis of fluorogenic-substrate V, FITC- insulin-bound antibody, and FAβB by recombinant human IDE purified from E.coli BL21 [6], [18], [19]. […] Also, D6 increased the amyloid-β degradation by 20% (Fig. S1C). Further, D10 enhanced IDE-mediated FITC-insulin-mAb and substrate V degradation by 290% and 65%, respectively (Fig. S1A, B). Next, an EC50 value of each molecule that enhanced IDE activity was determined with a dose response assay, where specific activity of IDE was measured with different concentrations of the lead compounds and then the plot was fit to Sigmoidal Hill-4 parameter equation. […] EC50 value for D3 on insulin degradation was approximately measured as 20 µM (Fig. S2C), whereas EC50 value for D6 on amyloid-β degradation was 2 µM (Fig. S2D). […] Among all these four compounds, D10 seems to be the potent activator of IDE, when proteolysis of insulin is considered.
This assay was performed as follows: 10 µl of 50 nM of FAβB was dissolved in a buffer which consisted of 50 mM HEPES, 100 mM NaCl, % 0,05 (v/v) bovine serum albumin, at a pH of 7.4. The reaction was initiated in a total volume of 100 µl with 20 µM drugs by adding 20 µl of 0.02 mg/ml of IDE for 2.5 h at 37°C. The reaction was stopped by adding 2 µl of 100 mM of protease inhibitor (1, 10-phenanthroline). Uncleaved FAβB was precipitated with Neutravidin- coated agarose beads by gentle rocking for 30 min. and centrifugation for 10 min at 14000 g. The supernatant was transferred to the black 96 well plates and increase in fluorescence (488 excitation, 525 emission) was measured with a multi-label plate reader.
The effect of the lead compounds on the initial rate of proteolysis of IDE was determined by measurement in fluorescence with time both in the presence and absence of the lead compounds. The kinetic data for IDE-mediated insulin, substrate V and amyloid-β degradation were plotted and fitted using SigmaPlot software (Sigmoidal, Hill, 4 parameter). For the initial rate calculations, kinetic data were fitted using SigmaPlot software (Hyperbola; Single Rectangular I, 3 Parameter).

HeLa cells [2] = assay: Cell-based degradation of FITC-insulin; parameters: species or system human
Method: It was shown that HeLa cells express insulin receptor, and thus take FITC-labeled insulin inside and degrade it intracellularly, [21], [22]. First, FITC-insulin was added to the culture that contains HeLa cells and incubated for 2 hours in order to allow for sufficient uptake of FITC-insulin by HeLa cells. In order to ensure that FITC-labeled insulin is translocating into the cells through insulin uptake receptor, and that cytoplasmic IDE can degrade FITC- insulin, we conducted live cell imaging of HeLa cells, and recorded fluorescence. At various time points compounds, D3, D6, and D10, were added; and cells were washed with Hank's balanced salt solution (HBSS), the these cells were collected and lysed with appropriate buffer. After centrifugation, cell free extracts were used to measure the change in fluorescence by luminometer. […] Compound D10 increased in vivo proteolysis of FITC- insulin by about 32 fold with HeLa cells compared to control group (Fig. 3A). […] These findings are consistent with the data obtained by in vitro assay, showing enhanced degradation of insulin by D10 and D3 (Fig. 3A). […] This figure further verifies the significant increase in fluorescence observed in the presence of compound D10, which is consistent with our in vitro assay (Fig. 3B).
Cells were cultured at 37°C under a humidified atmosphere of 5% CO2 in medium supplemented with 10% fetal bovine serum. Then, FITC-insulin was added to cell medium and incubated for 2 h at 37°C. Next, compounds were loaded at different time intervals separately. Cells were washed with Hank's balanced salt solution (HBSS), then disrupted with 1× passive lysis buffer. Fluorescence was measured with a luminescence multi-label plate leader, and changes in fluorescence was imaged by fluorescence microscope at Burc Laboratory (Istanbul, Turkey).

HeLa cells [3] = assay: MTT assay for cell viability; type: cell-based, human
Description: We characterized the activity of novel compounds in a cellular assay to establish whether there were any cytotoxic effects. We used an established MTT (3-(4,5-dimethylthiazolyl-2)-2, 5-diphenyltetrazolium bromide or thiazolyl blue) method using HELA cells to determine whether the small molecule affects cell viability. In this method, a purple formazan dye forms as a result of the cleavage of the yellow tetrazolium MTT within metabolically active cells. The resulting precipitate of the intracellular formazan can be dissolved in a detergent solution and quantified spectrophotometrically at 595 nm. We measured the cytotoxicity by incubating HELA cells in the presence of novel compounds at concentrations ranging from 1 to 100 µM for 24 h. Cell viability was measured using the MTT method after […] culture. The extent of cell death was expressed relative to a control containing DMSO. […] Therefore, as a next step we tested the effects of lead compounds on insulin catabolism using HeLa cells.
The cytotoxicity assay was performed using human cervical cancer HeLa cells. Cells were cultured at 37°C under a humidified atmosphere of 5% CO2 in medium supplemented with 10% fetal bovine serum and dispersed in replicate 96-well plates with 2.5×10^4 cells/well. Compounds were then added. After 24 hours exposure to the chemical compounds, the cell viability was determined by 3-[4,5-dimethylthiazol-2-yl]-2,5-diphenpyltetrazolium bromide (MTT) assay. The optical density (OD) of the wells was determined using ELISA plate reader at a test wavelength of 600 nm and a reference wavelength of 630 nm. Each measurement was carried out in triplicate.

IDE [4] = conditions: bradykinin as IDE substrate; cited from earlier work

Molecule	increase of IDE-mediated amyloid-β degradation (IDE [1]; 20 µM compound) [%]	effect of ATP on amyloid-β degradation in presence of compound (IDE [1]; ATP, data not shown)	EC50 (IDE [1]; dose response, Sigmoidal Hill 4 parameter fit) [nM]	acceleration of initial rate of amyloid-β proteolysis (IDE [1]; presence vs absence of compound) [factor]	effect on insulin catabolism in HeLa cells (HeLa cells [2]; HeLa cells pre-loaded with FITC-insulin)	permeability through cell membrane (HeLa cells [2]; inferred from HeLa cell assay)	cytotoxicity at EC50 value (HeLa cells [3]; 2 µM)	cytotoxicity at high concentrations (HeLa cells [3]; 1 to 100 µM, 24 h)	Km (IDE [4]) [mM]
O=[N+]([O-])c1cc(Cn2c(-c3ccc(Cl)c([N+](=O)[O-])c3)nc3ccccc32)ccc1Cl [Compound D6]	20	no effect	2000	1.3	no effect on insulin catabolism; also recorded: does not change insulin degradation	permeable through cell membrane	not toxic	showed toxicity at higher concentrations	–
bradykinin (RPPGFSPFR; Bradykinin; UniProt P01042 381-389, looked up)	–	–	–	–	–	–	–	–	4.2
